Laboratory results taken from patent publication US9486461B2, “Methods and compositions for inducing apoptosis by stimulating ER stress” (UNIVERSITY OF SOUTHERN CALIFORNIA, priority 2007, dated 2016).
pIC50: −log10 of the molar value.

Key:
[1] = tested on: CHOP protein in U87 glioblastoma tumor tissue; test: Immunohistochemical staining for CHOP in xenograft tumor tissue; assay type: in vivo, nude mice; conditions: U87MG xenograft, 1 mg/kg BZM and 7.5 mg/kg DMC individually or in combination, 50 h
Text: In all cases, representative sections are shown.
Immunohistochemical analysis of protein expression in tumor tissues was done with the use of the Vectastain avidin-biotin complex method kit (Vector Laboratories, Burlingame, Calif.) according to the manufacturer's instructions. This procedure uses biotinylated secondary antibodies and a preformed avidin: biotinylated enzyme complex that has been termed the avidin-biotin complex method technique. As the primary antibody, we used anti-CHOP antibody (Santa Cruz Biotechnology) diluted 1:100 in 2% normal goat blocking serum.

[2] = tested on: U87MG glioblastoma cell line; test: MTT assay, U87MG; assay type: cell-based; conditions: Homo sapiens, U-87 MG, 48 h, read-out: IC50 (50% inhibition of cell growth)
Method: (§1) For comparison purposes to the known anti-multiple myeloma effects of bortezomib, the RPMI/8226 multiple myeloma cell line was included in (A).
(§2) 3-(4,5-Dimethylthiazol-2-yl)-2,5-diphenyltetrazolium bromide (MTT) assays were performed in 96-well plates with the use of 3.0×10^3 to 8.0×10^3 cells per well as described in detail elsewhere (19).

LN229 cells = test: Colony formation assay, LN229; assay type: cell-based, human; conditions: LN229: 5 nM BZM, 60 μM CXB, 40 μM DMC, alone or combined; 48 hours, colonies two weeks thereafter
Method: Representative sections are shown. (B) Quantitative analysis of combination drug effects. […] Cell viability was determined by trypan blue exclusion assay.
The different small interfering RNAs (siRNA) were synthesized at the microchemical core laboratory of the University of Southern California/Norris Comprehensive Cancer Center; their sequences are described in ref. 32. Transfections of cells with these siRNAs and subsequent analysis of cell survival by colony formation assay have been described in detail elsewhere (32).

[3] = tested on: RPMI/8226 multiple myeloma cell line; test: MTT assay, RPMI/8226; assay type: cell-based; conditions: RPMI/8226, 48 h, not more sensitive than the glioblastoma cell lines
Method: as §1, §2

[4] = tested on: polyubiquitinated proteins in U251 cells; test: Western blot of polyubiquitinated proteins, U251; assay type: cell-based, human; conditions: U251, increasing concentrations, 24 hours
Method: Total cell lysates were analyzed by Western blot with specific antibodies to ubiquitin, GRP78, CHOP, and caspase 4. Actin was used as a loading control. […] Note that in the caspase 4 blots several non-specific background bands were observed (consistent with similar observations in the literature); the specific bands were identified with the use of various controls (not shown) and comparison to the literature.
(§3) Total cell lysates were prepared and analyzed by Western blot analysis as described earlier (19). Immunohistochemical analysis of protein expression in tumor tissues was performed with the use of the Vectastain avidin-biotin complex method kit (Vector Laboratories) as described previously (32). The primary antibodies were purchased from Cell Signaling Technology or Santa Cruz Biotechnology, Inc. and used according to the manufacturers' recommendations. All immunoblots and stainings were repeated at least once to confirm the results.

[5] = tested on: T98G glioblastoma cell line; test: MTT assay, T98G; assay type: cell-based; conditions: Homo sapiens, 48 h, read-out: IC50 (50% inhibition of cell growth)
Method: as §1, §2

[6] = tested on: CHOP, GRP78, caspase 4 in U251 glioblastoma cells; test: Western blot of ER stress indicators in U251 cells; assay type: cell-based, human; conditions: U251, increasing concentrations, 24 hours
Method: U251 glioblastoma cells were cultured in the presence of 1 μM thapsigargin (Tg) or 60 μM DMC for various times, as indicated. Total cell lysates were prepared and analyzed by Western blot with specific antibodies to the ER stress proteins GRP78, CHOP, and caspase 4 (Casp 4). Actin was used as a loading control.
Shown are (A) time kinetics at 50 μM of each drug, and (B) concentration dependence after 15 hours of incubation.
Shown are (FIG. 7A) time kinetics at 50 μM of each drug, and (FIG. 7B), concentration dependence after 15 hours of incubation.
U251 glioblastoma cells were cultured for 24 hours in the presence of increasing concentrations of (A) bortezomib (BZM) or (B) DMC. Total cell lysates were analyzed by Western blot with specific antibodies to ubiquitin, GRP78, CHOP, and caspase 4. Actin was used as a loading control.
Total cell lysates were prepared by lysis of cells with radioimmunoprecipitation assay buffer (28), and protein concentrations were determined using the bicinchoninic acid protein assay reagent (Pierce, Rockford, Ill.). For Western blot analysis, 50 Ag of each sample were processed as described (29). The primary antibodies were purchased from Cell Signaling Technologies (Beverly, Mass.), Cayman Chemical (Ann Arbor, Mich.), or Santa Cruz Biotechnology, Inc. (Santa Cruz, Calif.) and used according to the manufacturer's recommendations. The secondary antibodies were coupled to horseradish peroxidase and detected by chemiluminescence using the SuperSignal West substrate from Pierce. All immunoblots were repeated at least once to confirm the results.
as §3

[7] = tested on: LN229 glioblastoma cell line; test: MTT assay, LN229; assay type: cell-based, human; conditions: Homo sapiens, LN-229, LN229, 48 h, read-out: IC50 (50% inhibition of cell growth)
Method: as §1, §2

U251 glioblastoma cells = test: MTT assay, U251; assay type: cell-based, human; conditions: Homo sapiens, U-251; U251, 48 h, MTT; read-out: IC50 (50% inhibition of cell growth)
Method: U251 glioblastoma cells were treated with different drugs, and various parameters of cell growth and cell death were comparatively analyzed. As controls, cells remained either non-treated (Co) or were treated with the solvent DMSO alone. (FIG. 8A) Cells were treated with 30 or 50 μM DMC for 48 hours and the effects on cell growth/survival and on cell death were determined by various assays. […] Below the three panels, the expression levels of the ER stress indicators CHOP, GRP78, and caspase 4 at the end of the 48 hour drug treatment is shown, as determined by Western blot analysis with specific antibodies (actin served as a loading control. (FIG. 8B) Cells were treated with various concentrations of different drugs for 48 hours, as indicated, and cell death was measured with the cell death ELISA kit. (FIG. 8C) Cells were treated with DMC or various coxibs and traditional NSAIDs for 48 hours, as indicated, and cell growth and survival was determined with the conventional MTT assay (control, non-treated cells were set at 100%). MTT assays were performed in 96-well plates with the use of 3.0-8.0×10^3 cells per well as described in detail elsewhere (34). In parallel, the expression levels of CHOP and GRP78 protein were determined by Western blot analysis. […]
as §2

U87 glioblastoma tumors = test: TUNEL assay of xenograft tumor tissue; conditions: U87MG xenograft, 1 mg/kg BZM and 7.5 mg/kg DMC individually or in combination, 50 h

pIC50 [2]: ~8.00
pIC50 [5]: ~8.00
pIC50 [7]: > 8.30
pIC50 (U251 glioblastoma cells): ~8.00
SMILES: CC(C)C[C@H](NC(=O)[C@H](Cc1ccccc1)NC(=O)c1cnccn1)B(O)O [bortezomib]
CHOP expression in tumor tissue [1]: larger fraction of CHOP-positive cells
reduction of colony number (LN229 cells): ~50%
sensitivity of RPMI/8226 cells [3]: high sensitivity
accumulation of polyubiquitinated proteins [4]: highly elevated levels of polyubiquitinated proteins
expression of GRP78 and CHOP [6]: increased expression of GRP78 and CHOP
TUNEL staining of tumor tissue (U87 glioblastoma tumors): increased TUNEL staining
